Results on 33 molecules are retold here after PMC8286840, “Identifying SARS-CoV-2 antiviral compounds by screening for small molecule inhibitors of Nsp3 papain-like protease” (Biochemical Journal, 2021).

Where a name gives a salt, the structure may show the parent alone. Read-outs that look alike come from different tables or passages of the source.

In assay [1] the target is T1, SARS-CoV-2 PLpro (nsp3 1564–1878) (Severe acute respiratory syndrome coronavirus 2, UniProt P0DTD1). The assay is described as follows: biochemical. More on the design: FRET-quenched peptide (Pro3) cleavage by PLpro, 10 min pre-incubation, slope over 20 min, normalised to no-compound control. The conditions noted are these: read-out: % of control remaining.
For assay [2], the target named is T1, SARS-CoV-2 PLpro (nsp3 1564–1878). Kind of assay: biochemical. The note with it: read-out: % of control remaining. On the set-up: FRET-quenched peptide (Pro3) cleavage by PLpro, 10 min pre-incubation, slope over 20 min, normalised to no-compound control. The source holds these as a separate data set.

As to `N[C@@H](CC(=O)O)C(=O)O` [L-Aspartic acid], in assay [1] (Well no.=248, low concentration screen), the remaining activity at 1.25 µM was 96.2%. The remaining activity at 3.75 µM in assay [2] (Well no.=248, high concentration screen) came out at 97.3%; in assay [2] (Well no.=7683, high concentration screen) it was 106%.

In the case of `CCCCS(=N)(=O)CCC(N)C(=O)O` [L-Buthionine-sulfoximine], the remaining activity at 1.25 µM in assay [1] (Well no.=315, low concentration screen) worked out at 97.6%. Also, the remaining activity at 3.75 µM in assay [2] (Well no.=315, high concentration screen) worked out at 97.7%.

Turning to `NC(N)=NOCC[C@H](N)C(=O)O` [L-Canavanine sulfate], the remaining activity at 1.25 µM in assay [1] (Well no.=382, low concentration screen) is 88.7%. Moreover, in assay [2] (Well no.=382, high concentration screen), the remaining activity at 3.75 µM turned out to be 96.4%.

For the molecule `NCCC(=O)N[C@@H](Cc1cnc[nH]1)C(=O)O` [L-Carnosine], the remaining activity at 1.25 µM in assay [1] (Well no.=7017, low concentration screen) is 112%. Besides, the remaining activity at 3.75 µM in assay [2] (Well no.=7017, high concentration screen) worked out at 111%.

Turning to `NC(=O)NCCC[C@H](N)C(=O)O` [L-Citrulline], the remaining activity at 1.25 µM in assay [1] (Well no.=7159, low concentration screen) amounted to 108%. In addition, the remaining activity at 3.75 µM in assay [2] (Well no.=7159, high concentration screen) is 102%.

`N[C@H]1CONC1=O` [L-Cycloserine]: the remaining activity at 1.25 µM in assay [1] (Well no.=187, low concentration screen) worked out at 104%; in assay [1] (Well no.=3185, low concentration screen), 103%. Further, the remaining activity at 3.75 µM stood at 101% in assay [2] (Well no.=187, high concentration screen) and 102% in assay [2] (Well no.=3185, high concentration screen).

Turning to `N[C@@H](CS)C(=O)O` [L-Cysteine], in assay [1] (Well no.=7783, low concentration screen), the remaining activity at 1.25 µM is 107%. In addition, the remaining activity at 3.75 µM in assay [2] (Well no.=7783, high concentration screen) came to 109%.

In the case of `N[C@@H](CS(=O)O)C(=O)O` [L-Cysteinesulfinic Acid], the remaining activity at 1.25 µM in assay [1] (Well no.=128, low concentration screen) was 93.4%. Moreover, in assay [2] (Well no.=128, high concentration screen), the remaining activity at 3.75 µM turned out to be 96.5%.

Consider `N[C@@H](CSSC[C@H](N)C(=O)O)C(=O)O` [L-Cystine], for which the remaining activity at 1.25 µM in assay [1] (Well no.=6393, low concentration screen) came out at 104%. Also, the remaining activity at 3.75 µM in assay [2] (Well no.=6393, high concentration screen) was 106%.

As to `N[C@@H](Cc1ccc(O)c(O)c1)C(=O)O` [L-DOPA], the remaining activity at 1.25 µM in assay [1] (Well no.=6861, low concentration screen) turned out to be 91.2%. Moreover, the remaining activity at 3.75 µM in assay [2] (Well no.=6861, high concentration screen) came to 92.3%.

Consider `CNCC(O)c1ccc(O)c(O)c1` [L-Epinephrine (Bitartrate)], for which the remaining activity at 1.25 µM in assay [1] (Well no.=6952, low concentration screen) is 98%. Moreover, the remaining activity at 3.75 µM in assay [2] (Well no.=6952, high concentration screen) amounted to 94.1%.

In the case of `N[C@@H](CCC(=O)O)C(=O)O` [L-Glutamic acid hydrochloride], the remaining activity at 1.25 µM in assay [1] (Well no.=619, low concentration screen) was 102%. Moreover, the remaining activity at 3.75 µM in assay [2] (Well no.=619, high concentration screen) worked out at 97.5%.

Regarding `N[C@@H](CCC(=O)O)C(=O)O` [L-Glutamic acid monosodium salt], the remaining activity at 1.25 µM in assay [1] (Well no.=8573, low concentration screen) came out at 103%. In assay [2] (Well no.=8573, high concentration screen), the remaining activity at 3.75 µM amounted to 106%.

`NC(=O)CC[C@H](N)C(=O)O` [L-Glutamine]: the remaining activity at 1.25 µM in assay [1] (Well no.=715, low concentration screen) came to 96.1%; in assay [1] (Well no.=6899, low concentration screen) it was 93.9%; in assay [1] (Well no.=7743, low concentration screen), 102%. In addition, the remaining activity at 3.75 µM was determined as 93.2% in assay [2] (Well no.=715, high concentration screen); 92.3% in assay [2] (Well no.=6899, high concentration screen); 104% in assay [2] (Well no.=7743, high concentration screen).

Consider `O=C1O[C@H]([C@@H](O)CO)[C@H](O)[C@@H]1O` [L-Gulono-1,4-lactone], for which the remaining activity at 1.25 µM in assay [1] (Well no.=6771, low concentration screen) worked out at 102%. In assay [2] (Well no.=6771, high concentration screen), the remaining activity at 3.75 µM worked out at 104%.

Take `N[C@@H](Cc1c[nH]cn1)C(=O)O` [L-Histidine hydrochloride]: in assay [1] (Well no.=422, low concentration screen), the remaining activity at 1.25 µM is 92.7%. For the same molecule, the remaining activity at 3.75 µM in assay [2] (Well no.=422, high concentration screen) came out at 94.7%.

In the case of `NC(=O)NCCCC[C@H](N)C(=O)O` [L-Homocitrulline], in assay [1], the remaining activity at 1.25 µM is 101%. In addition, the remaining activity at 3.75 µM in assay [2] worked out at 89.3%.

Consider `N[C@@H](CCO)C(=O)O` [L-Homoserine], for which the remaining activity at 1.25 µM in assay [1] (Well no.=6821, low concentration screen) came to 100%. For the same molecule, the remaining activity at 3.75 µM in assay [2] (Well no.=6821, high concentration screen) is 101%.

Turning to `O=C(O)[C@@H]1C[C@@H](O)CN1` [L-Hydroxyproline], the remaining activity at 1.25 µM worked out at 101% in assay [1] (Well no.=6735, low concentration screen) and 94.2% in assay [1] (Well no.=8744, low concentration screen). In addition, the remaining activity at 3.75 µM in assay [2] (Well no.=6735, high concentration screen) is 102%; in assay [2] (Well no.=8744, high concentration screen) it was 91.4%.

As for `CN1[C@@H]2CC[C@H]1C[C@@H](OC(=O)[C@H](CO)c1ccccc1)C2` [L-Hyoscyamine], the remaining activity at 1.25 µM in assay [1] (Well no.=424, low concentration screen) is 99.2%; in assay [1] (Well no.=6801, low concentration screen) it was 103%. Also, the remaining activity at 3.75 µM in assay [2] (Well no.=424, high concentration screen) is 96.8%; in assay [2] (Well no.=6801, high concentration screen), 99.4%.

In the case of `Nc1ccccc1C(=O)C[C@H](N)C(=O)O` [L-Kynurenine], in assay [1] (Well no.=7221, low concentration screen), the remaining activity at 1.25 µM turned out to be 95.5%. Moreover, the remaining activity at 3.75 µM in assay [2] (Well no.=7221, high concentration screen) is 92%.

As to `C[C@H](O)C(=O)O` [L-Lactic acid], in assay [1] (Well no.=7395, low concentration screen), the remaining activity at 1.25 µM was 104%. Besides, the remaining activity at 3.75 µM in assay [2] (Well no.=7395, high concentration screen) is 106%.

As to `CS(=N)(=O)CC[C@H](N)C(=O)O` (stereo partly drawn) [L-Methionine sulfoximine], the remaining activity at 1.25 µM in assay [1] (Well no.=1120, low concentration screen) was determined as 96.3%. Moreover, the remaining activity at 3.75 µM in assay [2] (Well no.=1120, high concentration screen) was determined as 99.8%.

Turning to `N[C@@H](Cn1ccc(=O)c(O)c1)C(=O)O` [L-Mimosine], the remaining activity at 1.25 µM in assay [1] (Well no.=3819, low concentration screen) turned out to be 92.9%. For the same molecule, in assay [2] (Well no.=3819, high concentration screen), the remaining activity at 3.75 µM was determined as 94.6%.

For `CC(N)=NCCC[C@H](N)C(=O)O` [L-N5-(1-Iminoethyl)ornithine hydrochloride], in assay [1] (Well no.=967, low concentration screen), the remaining activity at 1.25 µM stood at 101%. Also, the remaining activity at 3.75 µM in assay [2] (Well no.=967, high concentration screen) is 101%.

In the case of `CCCCCCCCCCCCCCCC(=O)N[C@@H](COP(=O)(O)O)C(=O)O` [L-NASPA], the remaining activity at 1.25 µM in assay [1] (Well no.=4499, low concentration screen) stood at 91.6%. The remaining activity at 3.75 µM in assay [2] (Well no.=4499, high concentration screen) is 94.8%.

On to `CCCC[C@H](N)C(=O)O` [L-Norleucine], for which the remaining activity at 1.25 µM in assay [1] (Well no.=7733, low concentration screen) came out at 103%. In assay [2] (Well no.=7733, high concentration screen), the remaining activity at 3.75 µM was determined as 106%.

`CC(C)(S)[C@H](N)C(=O)O` [L-Penicillamine]: the remaining activity at 1.25 µM in assay [1] (Well no.=3332, low concentration screen) came to 100%. The remaining activity at 3.75 µM in assay [2] (Well no.=3332, high concentration screen) was 99.5%.

For the molecule `O=C(O)[C@@H]1CCCN1` [L-Proline], the remaining activity at 1.25 µM in assay [1] (Well no.=7737, low concentration screen) turned out to be 105%; in assay [1] (Well no.=8324, low concentration screen), 101%. Also, the remaining activity at 3.75 µM in assay [2] (Well no.=7737, high concentration screen) came to 108%; in assay [2] (Well no.=8324, high concentration screen) it was 97.3%.

As for `O=C1CC[C@@H](C(=O)O)N1` [L-Pyroglutamic acid], the remaining activity at 1.25 µM in assay [1] (Well no.=6783, low concentration screen) worked out at 102%. The remaining activity at 3.75 µM in assay [2] (Well no.=6783, high concentration screen) was determined as 104%.

For the molecule `C[Se]CC[C@H](N)C(=O)O` [L-SelenoMethionine], in assay [1] (Well no.=6681, low concentration screen), the remaining activity at 1.25 µM was 106%. Also, in assay [2] (Well no.=6681, high concentration screen), the remaining activity at 3.75 µM worked out at 103%.

In the case of `N[C@@H](CO)C(=O)O` [L-Serine], the remaining activity at 1.25 µM in assay [1] (Well no.=7695, low concentration screen) came out at 105%. Besides, the remaining activity at 3.75 µM in assay [2] (Well no.=7695, high concentration screen) is 110%.

`CCNC(=O)CC[C@H](N)C(=O)O` [L-Theanine]: in assay [1] (Well no.=3522, low concentration screen), the remaining activity at 1.25 µM came out at 97.3%. Also, the remaining activity at 3.75 µM in assay [2] (Well no.=3522, high concentration screen) turned out to be 99%.
